This is an account of results in US20040038944A1, “Compositions and methods of preventing or reducing the risk or incidence of skeletal injuries in horses” (Merck & Co., Inc., priority 2000, published 2004).

The subject of experiment [1] is C-telopeptides (C-Tx). The note with it: alendronate injection, horses confined to stall rest for 56 days, versus saline. The source says: (§1) Bone metabolism is monitored using standard techniques, i.e. serum assays to determine levels of markers of bone turnover, bone resorption and bone formation and ultrasound is used to assess changes in bone density.
(§2) Materials and Methods: Sixteen healthy adult thoroughbred horses (eight mares and eight male castrates) which had previously been running at pasture for at least 4 months are used.
(§3) The horses are randomly allocated to 4 treatment groups of four horses, each containing two mares and two male castrates. Serum samples are collected and ultrasound measurements are taken on three occasions directly before commencement of stall rest. Assays are conducted on the serum samples to determine pre-confinement levels of C-telopeptides (C-Tx; a collagen breakdown product that is a marker of bone resorption); osteocalcin (a marker of bone turnover) and bone specific alkaline phosphatase (a marker of bone formation). Ultrasound is used to measure the speed of transmission of sound waves through the bone.
(§4) Stall rest is commenced the day of first treatment. Serum samples are taken twice weekly and ultrasound measurements are taken each 14 days for the 56 days of the study to monitor changes in bone metabolism markers and in bone density relative to pre-confinement values. At the end of the study the horses are returned to the pasture.

Experiment [2] has as its system bone specific alkaline phosphatase. The following applies: Groups 2-4, i.v., 56 days stall rest; also reduced in placebo.
Description: as §1, §2, §3, §4

Take `NCCCC(O)(P(=O)(O)O)P(=O)(O)O` [alendronate, 4-amino-1-hydroxybutylidene-1,1-bisphosphonic acid monosodium trihydrate]: the “bone resorption (result in words)” value in experiment [1] is “suppressed bone resorption”. For the same molecule, the “marker for bone formation (bone specific alkaline phosphatase)” value in experiment [2] is listed as “reduced”.
